Source: patent US11911349B2, “Rapidly improving vascular conditions by administering vitamin K” (NATTOPHARMA AS, priority 2018, dated 2024)

Columns and labels:
[1] = system: endothelial nitric oxide synthase (eNOS)-dependent nitric oxide (NO) production; assay: Example 3: endothelial NO production in ex vivo aorta by EPR spin-trapping; conditions: 0.05 mg/kg b.w./day, vs untreated age-matched mice
Text: For measurements of endothelial nitric oxide synthase (eNOS)-dependent nitric oxide (NO) production, EPR spin-trapping with diethyldithiocarbamic acid sodium salt (DETC) was used ex vivo, as described in Przyborowski K, Proniewski B, Czarny J, Smeda M, Sitek B, Zakrzewska A, et al. Vascular Nitric Oxide-Superoxide Balance and Thrombus Formation after Acute Exercise. Med Sci Sport Exerc 2018:1. doi:10.1249/MSS.0000000000001589, with minor modifications. Isolated aorta cleared from surrounding tissue was opened longitudinally and preincubated with 10 μM L-NIL (N6-(1-Iminoethyl)-lysine, hydrochloride) in Krebs-HEPES buffer for 30 minutes at 37° C. in a well of a 48-well plate. Next, 250 μL of Fe(DETC)2 colloid was added and aorta was stimulated with calcium ionophore A23187 (the final concentration was 1 μM) and subsequently, incubated for 90 minutes at 37° C. Finally, aorta was weighed and frozen in liquid nitrogen (suspended in fresh buffer) into the middle of a 400 μL column of Krebs-Hepes buffer and stored at −80° C. until measured. EPR spectra were obtained using an X-band EPR spectrometer (EMX Plus, Bruker, Germany), equipped with a rectangular resonator cavity H102. Signals were quantified by measuring the total amplitude of the NO—Fe(DETC)2 after correction of baseline. The quantitative results of NO production assessed by EPR were expressed in AU/mg of tissue.

[2] = system: ApoE/LDLR−/− mice; assay: Example 2: nitrite and nitrate concentration in plasma (HPLC, ENO-20); format: in vivo; conditions: two months
Method: Blood samples were collected from heart into test tubes containing additional anticoagulant and centrifuged at 1000 g for 10 min at 4° C. The samples were used for HPLC measurement of nitrate (NO3−) and nitrite (NO2−) concentrations in plasma by an ENO-20 NOx Analyzer.

[3] = system: ApoE/LDLR−/− mice; assay: Example 3: nitrite and nitrate concentration in plasma, older mice; format: in vivo; conditions: eight weeks
[4] = system: ApoE/LDLR−/− mice; assay: Example 3: MRI assessment of Ach response in BCA and LCA, older mice with advanced atherosclerosis; format: in vivo; conditions: low dose 0.03 mg/kg b.w/day, eight weeks, 24-week-old mice; listed as vitamin K2, 0.03 mg/kg/day
Method: In a second part of the study, the effects of a low dose (0.03 mg/kg b.w./day) as well as a high doses (10 mg/kg b.w./day) of vitamin K2 (MK-7) on endothelial function in ApoE/LDLR−/−mice with pre-established atherosclerosis were assessed.
Magnetic resonance imaging (MRI) experiments were performed using a 9.4T scanner (BioSpec 94/20 USR, Bruker, Germany) located in the Department of Magnetic Resonance Imaging, Institute of Nuclear Physics, Polish Academy of Sciences in Krakow. During the experiment, mice were anaesthetized using isoflurane (Aerrane, Baxter Sp. z o. o., Poland, 1.7 vol %) in an oxygen and air (1:2) mixture and imaged in the supine position. Activity of the heart, respiration, and body temperature (maintained at 37° C. using circulating warm water) were monitored using a Monitoring and Gating System (SA Inc., Stony Brook, N.Y., USA). […]
Vasomotor response was examined by comparing two time-resolved 3D images of the vessels prior to and 25 minutes after intraperitoneal Ach administration (Sigma-Aldrich, Poznan Poland: 50 μl, 16.6 mg/kg), as well as prior to and 5 minutes after vessel occlusion. […] End-diastolic volumes of vessels were analyzed using ImageJ software 1.46r (NIH Bethesda, Md., USA) and scripts written in Matlab (MathWorks, Natick, Mass., USA). […]

[5] = system: ApoE/LDLR−/− mice; assay: Example 3: histological assessment of area and composition of atherosclerotic plaque in BCA, older mice; format: in vivo; conditions: eight weeks; for decrease in vessel wall area (VWA): 24-week-old mice
Text: For the determination of atherosclerotic plaque area and composition isolated brachiocephalic artery (BCA) was dissected, fixed in 4% buffered formalin, and embedded in paraffin. 5 μm-thick serial sections of BCA were collected from the proximal to distal part of the artery. Staining with Unna's orcein combined with Martius, Scarlet and Blue trichrome (OMSB) was applied on every tenth section (50 μm interval between each section) for quantitative analysis of atherosclerotic plaques. The areas of particular components of atherosclerotic plaque as well as artery lumen and wall were determined after Columbus-based software processing (FIG. 9) using specially-designed algorithm as described in Gajda M, Jasztal A, Banasik T, Jasek-Gajda E, Chlopicki S. Combined orcein and martius scarlet blue (OMSB) staining for qualitative and quantitative analyses of atherosclerotic plaques in brachiocephalic arteries in apoE/LDLR−/− mice. Histochem Cell Biol 2017. doi:10.1007/s00418-017-1538-8. The parameters analyzed include vessel wall area (VWA), internal vessel area (IVA=plaque area+lumen area), plaque area (expressed as percent of internal wall area: plaque/IWA), and lumen area (expressed as percent of internal wall area: lumen/IWA).

SMILES: CC(C)=CCC/C(C)=C/CC/C(C)=C/CC/C(C)=C/CC/C(C)=C/CC/C(C)=C/CC/C(C)=C/CC1=C(C)C(=O)c2ccccc2C1=O [MK-7, menaquinone-7]
- nitric oxide production in ex vivo aorta measured by EPR [1]: increased
- concentration of NO3− in plasma ([2]; 0.03 mg/kg b.w./day): did not change significantly
- concentration of NO3− in plasma ([2]; 10 mg/kg b.w./day): did not change significantly
- concentration of NO3− in plasma ([3]; 0.03 mg/kg b.w./day): did not change significantly
- concentration of NO3− in plasma ([3]; 10 mg/kg b.w./day): did not change significantly
- increase in NO2− concentration in plasma ([3]; high dose 10 mg/kg b.w./day): ~42%
- increase in NO2− concentration in plasma ([3]; low dose 0.03 mg/kg b.w./day): about 58%
- volume change of LCA after Ach injection [4]: ~−3%
- lumen area expressed as percent of IWA ([5]; high dose 10 mg/kg b.w./day): did not change
- plaque area expressed as percent of IWA ([5]; high dose 10 mg/kg b.w./day): did not change
- plaque size compared with non-treated mice ([5]; high dose 10 mg/kg b.w./day): not different
- decrease in vessel wall area (VWA) ([5]; high dose 10 mg/kg b.w./day): about 5%
- lumen area expressed as percent of IWA ([5]; low dose 0.03 mg/kg b.w./day): did not change
- plaque area expressed as percent of IWA ([5]; low dose 0.03 mg/kg b.w./day): did not change
- plaque size compared with non-treated mice ([5]; low dose 0.03 mg/kg b.w./day): not different
- decrease in vessel wall area (VWA) ([5]; low dose 0.03 mg/kg b.w./day): about 5%
- internal wall area (IWA) ([5]; lower dose, data not shown, not visible for entire vessel): decreased only in the middle part of the vessel
